Values joined by “and” are separate entries in the source; they are usually repeats but may differ in a detail not shown here. Equal values may be shown once. Marks after values point to notes of the source that are not given here.
Test: In vivo biodistribution of [^99mTc]Tc-carvedilol in healthy Swiss albino mice
Settings: for [^99mTc]Tc-carvedilol percentages of injected dose per Gram organ: i.v. tail vein
Source text: For biodistribution and receptor occupancy studies, 24 healthy adult Swiss albino mice (12 males and 12 females, aged 10–12 weeks, weighing 25–30 g) were obtained from the Egyptian National Research Center. Mice outside the 25–30 g weight range were excluded to ensure consistency in the biodistribution outcomes. Prior to the study, animals were housed in groups of four with ad libitum access to food and water and underwent a 2-week acclimatization period. After this adaptation phase, the mice were randomly assigned to the study groups using the lot-drawing method.
Given ^99mTc’s physical half-life of approximately 6 h, shorter imaging and sampling intervals are generally preferred to maximize radioactive signal fidelity and minimize decay-related variability. At 24 h post-injection, the residual ^99mTc activity could fall below quantifiable thresholds, potentially compromising the precision of biodistribution data. To prevent this, all data collection was restricted to early post-injection intervals—specifically […]—when radioactivity levels remain within optimal detection ranges for gamma counting. By omitting the 24 h time point altogether, the study design ensured that the radiotracer signal would be robust enough to yield statistically reliable biodistribution profiles without being confounded by the isotope’s exponential decay. Additionally, prior pilot studies were conducted to empirically determine the time window during which the radiochemical integrity and quantification signal-to-noise ratio remained analytically valid. These informed the exclusion of late-phase sampling and reinforced confidence in the reliability of kinetic data collected within the defined 6 h observation window. Therefore, six mice were euthanized at each selected time point via standardized cervical dislocation performed by trained personnel in accordance with institutional animal care guidelines. The procedure followed the AVMA Guidelines for the Euthanasia of Animals ([Kirkwood, 2013]), ensuring it was rapid, humane, and reproducible. To ensure procedural consistency, all cervical dislocations were performed by the same experienced researcher, following pre-established protocols that involved correct animal positioning, anatomical landmark identification, and verification of death through cessation of heartbeat and respiration. Immediately postmortem, body weight was recorded, and blood was collected via cardiac puncture.
Organ harvesting included the collection of the heart, liver, lungs, kidneys, spleen, stomach, intestines, muscle (right leg), bone, and brain. Following dissection, tissues were gently rinsed with isotonic saline to remove residual blood, promptly weighed, kept at low temperatures, and immediately subjected to gamma counting to preserve radiochemical integrity and avoid post-collection decay artifacts. No storage or freezing was used to prevent degradation or leakage of [^99mTc]Tc-carvedilol. Sample processing occurred in a shielded, on-site laboratory adjacent to the dissection area, ensuring minimal delay—typically less than 2 to 3 minutes—between collection and measurement.
To ensure methodological rigor and reproducibility, both experimental and computational components of the study were supported by a structured statistical framework. A total of 24 healthy albino mice (12 males, 12 females), aged 10–12 weeks and weighing 25 ± 3 g, were selected based on uniform health status, age, and weight to minimize inter-animal variability. Animals were maintained under controlled laboratory conditions (12-h light/dark cycle, standardized humidity, and temperature) with unrestricted access to food and water. For biodistribution analysis, animals were randomly assigned to four experimental groups, each consisting of six mice, each representing a distinct post-injection time point (15, 30, 60, and 120 min). […]

For `COc1ccccc1OCC[N]1CC(COc2cccc3[nH]c4ccccc4c23)[O][99Tc]12(=[O])[O]C(COc1cccc3[nH]c4ccccc4c13)C[N]2CCOc1ccccc1OC` (racemic) [[^99mTc]Tc-carvedilol], the “Residual [^99mTc]Tc-carvedilol percentages of injected dose per Gram in non-targeted organs” value (Blood row, 30 min post-injection) was 96.021 ± 0.01 % ID/g, the “Residual [^99mTc]Tc-carvedilol percentages of injected dose per Gram in non-targeted organs” value (Blood row, 60 min post-injection) was 92.710 ± 0.01 % ID/g and the “Residual [^99mTc]Tc-carvedilol percentages of injected dose per Gram in non-targeted organs” value (Blood row, 120 min post-injection) was 94.008 ± 0.02 % ID/g. For the same compound, the “[^99mTc]Tc-carvedilol percentages of injected dose per Gram organ” value (Blood, 15 min post-injection) was 19.895 ± 0.020 ^a % ID/g organ, the “[^99mTc]Tc-carvedilol percentages of injected dose per Gram organ” value (Blood, 30 min post-injection) was 3.969 ± 0.052 % ID/g organ and the “[^99mTc]Tc-carvedilol percentages of injected dose per Gram organ” value (Blood, 60 min post-injection) was 7.290 ± 0.052 % ID/g organ. For the same compound, the “[^99mTc]Tc-carvedilol percentages of injected dose per Gram organ” value (Blood, 120 min post-injection) was 5.972 ± 0.131 % ID/g organ, the “[^99mTc]Tc-carvedilol percentages of injected dose per Gram organ” value (Bone, 15 min post-injection) was 0.322 ± 0.035 % ID/g organ and the “[^99mTc]Tc-carvedilol percentages of injected dose per Gram organ” value (Bone, 30 min post-injection) was 0.963 ± 0.215 % ID/g organ. The “[^99mTc]Tc-carvedilol percentages of injected dose per Gram organ” value (Bone, 60 min post-injection) was 0.675 ± 0.215 % ID/g organ, the “[^99mTc]Tc-carvedilol percentages of injected dose per Gram organ” value (Bone, 120 min post-injection) was 2.703 ± 0.019 % ID/g organ and the “Residual [^99mTc]Tc-carvedilol percentages of injected dose per Gram in non-targeted organs” value (Brain row, 15 min post-injection) was 99.359 ± 0.01 % ID/g. The “Residual [^99mTc]Tc-carvedilol percentages of injected dose per Gram in non-targeted organs” value (Brain row, 30 min post-injection) was 98.409 ± 0.03 % ID/g, the “Residual [^99mTc]Tc-carvedilol percentages of injected dose per Gram in non-targeted organs” value (Brain row, 60 min post-injection) was 97.103 ± 0.01 % ID/g and the “Residual [^99mTc]Tc-carvedilol percentages of injected dose per Gram in non-targeted organs” value (Brain row, 120 min post-injection) was 99.679 ± 0.02 % ID/g. For the same compound, the “[^99mTc]Tc-carvedilol percentages of injected dose per Gram organ” value (Brain, 15 min post-injection) was 0.631 ± 0.020 % ID/g organ, the “[^99mTc]Tc-carvedilol percentages of injected dose per Gram organ” value (Brain, 30 min post-injection) was 1.561 ± 0.008 % ID/g organ and the “[^99mTc]Tc-carvedilol percentages of injected dose per Gram organ” value (Brain, 60 min post-injection) was 2.895 ± 0.391 % ID/g organ. The “[^99mTc]Tc-carvedilol percentages of injected dose per Gram organ” value (Brain, 120 min post-injection) was 0.301 ± 0.110 % ID/g organ, the “Residual [^99mTc]Tc-carvedilol percentages of injected dose per Gram in non-targeted organs” value (Heart row, 15 min post-injection) was 72.467 ± 0.02 ^a % ID/g and the “Residual [^99mTc]Tc-carvedilol percentages of injected dose per Gram in non-targeted organs” value (Heart row, 30 min post-injection) was 92.707 ± 0.02 % ID/g. For the same compound, the “Residual [^99mTc]Tc-carvedilol percentages of injected dose per Gram in non-targeted organs” value (Heart row, 60 min post-injection) was 97.838 ± 0.03 % ID/g, the “Residual [^99mTc]Tc-carvedilol percentages of injected dose per Gram in non-targeted organs” value (Heart row, 120 min post-injection) was 96.414 ± 0.07 % ID/g and the “[^99mTc]Tc-carvedilol percentages of injected dose per Gram organ” value (Heart, 15 min post-injection) was 27.533 % ID/g organ and 27.533 ± 0.931 % ID/g organ and 27.533 ± 0.931 ^a % ID/g organ. The “[^99mTc]Tc-carvedilol percentages of injected dose per Gram organ” value (Heart, 30 min post-injection) was 7.273 ± 0.006 % ID/g organ, the “[^99mTc]Tc-carvedilol percentages of injected dose per Gram organ” value (Heart, 60 min post-injection) was 2.161 ± 0.006 % ID/g organ and the “[^99mTc]Tc-carvedilol percentages of injected dose per Gram organ” value (Heart, 120 min post-injection) was 3.516 ± 0.110 % ID/g organ. For the same compound, the “Residual [^99mTc]Tc-carvedilol percentages of injected dose per Gram in non-targeted organs” value (Intestines row, 15 min post-injection) was 95.435 ± 0.09 % ID/g, the “Residual [^99mTc]Tc-carvedilol percentages of injected dose per Gram in non-targeted organs” value (Intestines row, 30 min post-injection) was 96.612 ± 0.03 % ID/g and the “Residual [^99mTc]Tc-carvedilol percentages of injected dose per Gram in non-targeted organs” value (Intestines row, 60 min post-injection) was 92.604 ± 0.04 % ID/g. The “Residual [^99mTc]Tc-carvedilol percentages of injected dose per Gram in non-targeted organs” value (Intestines row, 120 min post-injection) was 94.643 ± 0.01 % ID/g, the “[^99mTc]Tc-carvedilol percentages of injected dose per Gram organ” value (Intestines, 15 min post-injection) was 4.507 ± 0.521 % ID/g organ and the “[^99mTc]Tc-carvedilol percentages of injected dose per Gram organ” value (Intestines, 30 min post-injection) was 3.358 ± 0.792 % ID/g organ. For the same compound, the “[^99mTc]Tc-carvedilol percentages of injected dose per Gram organ” value (Intestines, 60 min post-injection) was 7.355 ± 0.792 % ID/g organ, the “[^99mTc]Tc-carvedilol percentages of injected dose per Gram organ” value (Intestines, 120 min post-injection) was 5.347 ± 0.521 % ID/g organ and the “Residual [^99mTc]Tc-carvedilol percentages of injected dose per Gram in non-targeted organs” value (Kidneys row, 30 min post-injection) was 67.207 ± 0.04 ^a % ID/g. For the same compound, the “Residual [^99mTc]Tc-carvedilol percentages of injected dose per Gram in non-targeted organs” value (Kidneys row, 60 min post-injection) was 75.608 ± 0.01 % ID/g, the “Residual [^99mTc]Tc-carvedilol percentages of injected dose per Gram in non-targeted organs” value (Kidneys row, 120 min post-injection) was 70.660 ± 0.05 % ID/g and the “[^99mTc]Tc-carvedilol percentages of injected dose per Gram organ” value (Kidneys, 15 min post-injection) was 2.764 ± 0.012 % ID/g organ. The “[^99mTc]Tc-carvedilol percentages of injected dose per Gram organ” value (Kidneys, 30 min post-injection) was 32.753 ± 0.345 % ID/g organ and 32.753 ± 0.345 ^a % ID/g organ.

From article PMC12280724 (Frontiers in Pharmacology, 2025)
